{
  "source": "patent US11395492B2",
  "about": "“Antimicrobial and agrochemical compositions” (Myco Sciences Limited, priority 2015, dated 2022)",
  "key": {"Rhizoctonia solani [1]": {"system": "Rhizoctonia solani", "experimental": "To assess the effects of composition on fungal growth, 10 microliters of the test compositions diluted in sterile distilled water were placed in the wells of a 12-well tissue culture plate and 1 milliliter of PDA was added by pipette to each well. The plate was agitated to distribute the test composition evenly throughout the agar (distilled water alone was used as control) and then the agar was allowed to set. Plugs of agar containing fungal hyphae (3×3 millimeters) from an established fungal culture were cut out using a scalpel and inserted into holes cut into the centre of the agar in each well of the 12-well plate, which was then cultured at room temperature (22° C.). To assess the effects of compositions on radial fungal growth, the diameter the fungal hyphae was measured twice at a 90° angle using a ruler and the average diameter in millimeters was calculated. If no fungal growth could be detected by eye, the cultures were observed by phase microscopy (40×) to confirm that there was no growth (NG) as judged by visual examination.\nTo assess the effects of compounds and compositions on sclerotia formation, the R. solani cultures were examined daily and radial fungal growth was measured until the cultures were confluent after which time the development of white (immature) sclerotia and mature (black pigmented) sclerotia was noted and the number of mature sclerotia was counted on day 10 of culture."}, "Rhizoctonia solani [2]": {"system": "Rhizoctonia solani", "assay": "Inhibition of fungal growth assay (radial growth on PDA)", "conditions": "for IC50 (% of stock solution) on growth of R. solani: potato dextrose agar, 24 hour culture at 22° C.", "experimental": "Inhibition of fungal growth assay. The Rhizoctonia solani (R. solani) strain was isolated from sclerotia on the skin of a potato and was maintained in culture on potato dextrose agar (PDA) at room temperature (22° C.). To assess the effects of the compositions on fungal growth, 10 microliters of the test compositions diluted in sterile distilled water was placed in the wells of a 12-well tissue culture plate and 1 milliliter of PDA was added by pipette to each well. The plate was agitated to distribute the test composition evenly throughout the agar (distilled water alone was used as control) and then the agar was allowed to set. Plugs of agar containing fungal hyphae (3×3 millimeters) from an established fungal culture were cut out using a scalpel and inserted into holes cut into the centre of the agar in each well of the 12-well plate, which was then cultured at room temperature. To assess the effects of compositions on radial fungal growth, the diameter of the fungal hyphae was measured twice at a 90° angle using a ruler and the average diameter in millimeters was calculated. Concentrations of compositions required to inhibit the radial growth of R. solani by 50% (IC50) were determined graphically."}, "[3]": {"assay": "pH of diluted compositions and components", "assay_type": "physicochemical", "conditions": "1% suspension in water"}, "spores of F. oxysporum": {"system": "spores of F. oxysporum", "assay": "Sporicidal assay (1) with sodium nitrite, F. oxysporum", "assay_type": "cell-based, Fusarium oxysporum f. sp. cubense", "conditions": "test item 1%, 30 min"}, "spores of B. cinerea": {"system": "spores of B. cinerea", "assay": "Sporicidal assay (1) with sodium nitrite, B. cinerea;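 note: score 0 no growth 1 reduced growth 2 control-level growth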", "assay_type": "cell-based, Botrytis cinerea", "conditions": "test item 1%, 30 min"}},
  "note": "Like-named read-outs stand apart in the source and are kept apart here.",
  "data": [
    {"smiles": "NCP(=O)(O)O", "note": "[AMPA, aminomethyl phosphonic acid]", "values": [
      {"measurement": "Day 1 growth in mm", "setting": "Rhizoctonia solani [1]; 0.1 g/L (Table 11)", "result": 20, "unit": "mm"},
      {"measurement": "Day black SCL 1st seen", "setting": "Rhizoctonia solani [1]; 0.1 g/L (Table 11)", "result": 5},
      {"measurement": "Day growth confluent", "setting": "Rhizoctonia solani [1]; 0.1 g/L (Table 11)", "result": 2},
      {"measurement": "Day white SCL 1st seen", "setting": "Rhizoctonia solani [1]; 0.1 g/L (Table 11)", "result": 3},
      {"measurement": "No. black SCL on day 10", "setting": "Rhizoctonia solani [1]; 0.1 g/L (Table 11)", "result": ">20"},
      {"measurement": "Day 1 growth in mm", "setting": "Rhizoctonia solani [1]; 0.3 g/L (Table 11)", "result": 19, "unit": "mm"},
      {"measurement": "Day black SCL 1st seen", "setting": "Rhizoctonia solani [1]; 0.3 g/L (Table 11)", "result": 8},
      {"measurement": "Day growth confluent", "setting": "Rhizoctonia solani [1]; 0.3 g/L (Table 11)", "result": 2},
      {"measurement": "Day white SCL 1st seen", "setting": "Rhizoctonia solani [1]; 0.3 g/L (Table 11)", "result": 3},
      {"measurement": "No. black SCL on day 10", "setting": "Rhizoctonia solani [1]; 0.3 g/L (Table 11)", "result": ">20"},
      {"measurement": "Day 1 growth in mm", "setting": "Rhizoctonia solani [1]; 1 g/L (Table 11)", "result": 17, "unit": "mm"},
      {"measurement": "Day black SCL 1st seen", "setting": "Rhizoctonia solani [1]; 1 g/L (Table 11)", "result": 9},
      {"measurement": "Day growth confluent", "setting": "Rhizoctonia solani [1]; 1 g/L (Table 11)", "result": 2},
      {"measurement": "Day white SCL 1st seen", "setting": "Rhizoctonia solani [1]; 1 g/L (Table 11)", "result": 5},
      {"measurement": "No. black SCL on day 10", "setting": "Rhizoctonia solani [1]; 1 g/L (Table 11)", "result": 5}
    ]},
    {"smiles": "[Cl-].[Cu+2].[Cu+2].[OH-].[OH-].[OH-]", "note": "[CuOCl-TP, copper oxychloride]", "values": [
      {"measurement": "IC50 (% of stock solution) on growth of R. solani", "setting": "Rhizoctonia solani [2]", "result": "1.8 % of stock solution"},
      {"measurement": "pH of a 1% suspension in water", "setting": "[3]", "result": 6.2}
    ]},
    {"smiles": "O.O.O.O.O.O=S(=O)([O-])[O-].[Cu+2]", "note": "[CuSO4, copper sulfate pentahydrate]", "values": [
      {"measurement": "IC50 (% of stock solution) on growth of R. solani", "setting": "Rhizoctonia solani [2]", "result": "0.39 % of stock solution"},
      {"measurement": "Fungal growth score, spores of F. oxysporum", "setting": "spores of F. oxysporum; NaNO2 0 mM", "result": 2},
      {"measurement": "Fungal growth score, spores of F. oxysporum", "setting": "spores of F. oxysporum; NaNO2 1 mM", "result": 2},
      {"measurement": "Fungal growth score, spores of F. oxysporum", "setting": "spores of F. oxysporum; NaNO2 3 mM", "result": 2},
      {"measurement": "Fungal growth score, spores of F. oxysporum", "setting": "spores of F. oxysporum; NaNO2 10 mM", "result": 2},
      {"measurement": "Fungal growth score, spores of F. oxysporum", "setting": "spores of F. oxysporum; NaNO2 30 mM", "result": 2},
      {"measurement": "Fungal growth score, spores of B. cinerea", "setting": "spores of B. cinerea; NaNO2 0 mM", "result": 2},
      {"measurement": "Fungal growth score, spores of B. cinerea", "setting": "spores of B. cinerea; NaNO2 1 mM", "result": 2},
      {"measurement": "Fungal growth score, spores of B. cinerea", "setting": "spores of B. cinerea; NaNO2 3 mM", "result": 2},
      {"measurement": "Fungal growth score, spores of B. cinerea", "setting": "spores of B. cinerea; NaNO2 10 mM", "result": 2},
      {"measurement": "Fungal growth score, spores of B. cinerea", "setting": "spores of B. cinerea; NaNO2 30 mM", "result": 2},
      {"measurement": "Fungal growth score, spores of B. cinerea", "setting": "spores of B. cinerea; NaNO2 100 mM", "result": 0}
    ]},
    {"smiles": "O=C(O)CNCP(=O)(O)O", "note": "[Glyphosate, 2-[(phosphonomethyl)amino] acetic acid]", "values": [
      {"measurement": "Day 1 growth in mm", "setting": "Rhizoctonia solani [1]; 0.27 g/L (Table 11)", "result": 20, "unit": "mm"},
      {"measurement": "Day black SCL 1st seen", "setting": "Rhizoctonia solani [1]; 0.27 g/L (Table 11)", "result": 5},
      {"measurement": "Day growth confluent", "setting": "Rhizoctonia solani [1]; 0.27 g/L (Table 11)", "result": 2},
      {"measurement": "Day white SCL 1st seen", "setting": "Rhizoctonia solani [1]; 0.27 g/L (Table 11)", "result": 3},
      {"measurement": "No. black SCL on day 10", "setting": "Rhizoctonia solani [1]; 0.27 g/L (Table 11)", "result": ">20"},
      {"measurement": "Day 1 growth in mm", "setting": "Rhizoctonia solani [1]; 0.8 g/L (Table 11)", "result": 14, "unit": "mm"},
      {"measurement": "Day black SCL 1st seen", "setting": "Rhizoctonia solani [1]; 0.8 g/L (Table 11)", "result": 6},
      {"measurement": "Day growth confluent", "setting": "Rhizoctonia solani [1]; 0.8 g/L (Table 11)", "result": 2},
      {"measurement": "Day white SCL 1st seen", "setting": "Rhizoctonia solani [1]; 0.8 g/L (Table 11)", "result": 3},
      {"measurement": "No. black SCL on day 10", "setting": "Rhizoctonia solani [1]; 0.8 g/L (Table 11)", "result": 8},
      {"measurement": "Day 1 growth in mm", "setting": "Rhizoctonia solani [1]; 2.7 g/L (Table 11)", "result": 8, "unit": "mm"},
      {"measurement": "Day black SCL 1st seen", "setting": "Rhizoctonia solani [1]; 2.7 g/L (Table 11)", "result": 8},
      {"measurement": "Day growth confluent", "setting": "Rhizoctonia solani [1]; 2.7 g/L (Table 11)", "result": 6},
      {"measurement": "Day white SCL 1st seen", "setting": "Rhizoctonia solani [1]; 2.7 g/L (Table 11)", "result": 6},
      {"measurement": "No. black SCL on day 10", "setting": "Rhizoctonia solani [1]; 2.7 g/L (Table 11)", "result": 4},
      {"measurement": "Day 1 growth in mm", "setting": "Rhizoctonia solani [1]; 8 g/L (Table 11)", "result": 6, "unit": "mm"},
      {"measurement": "No. black SCL on day 10", "setting": "Rhizoctonia solani [1]; 8 g/L (Table 11)", "result": 0}
    ]},
    {"smiles": "O=[PH]([O-])O.[K+]", "note": "[Potassium phosphite, potassium phosphite]", "values": [
      {"measurement": "Day 1 growth in mm", "setting": "Rhizoctonia solani [1]; 10 mg/L (Table 9)", "result": 19, "unit": "mm"},
      {"measurement": "Day black SCL 1st seen", "setting": "Rhizoctonia solani [1]; 10 mg/L (Table 9)", "result": 5},
      {"measurement": "Day growth confluent", "setting": "Rhizoctonia solani [1]; 10 mg/L (Table 9)", "result": 2},
      {"measurement": "Day white SCL 1st seen", "setting": "Rhizoctonia solani [1]; 10 mg/L (Table 9)", "result": 3},
      {"measurement": "No. black SCL on day 10", "setting": "Rhizoctonia solani [1]; 10 mg/L (Table 9)", "result": 9},
      {"measurement": "Day 1 growth in mm", "setting": "Rhizoctonia solani [1]; 20 mg/L (Table 9)", "result": 19, "unit": "mm"},
      {"measurement": "Day black SCL 1st seen", "setting": "Rhizoctonia solani [1]; 20 mg/L (Table 9)", "result": 7},
      {"measurement": "Day growth confluent", "setting": "Rhizoctonia solani [1]; 20 mg/L (Table 9)", "result": 2},
      {"measurement": "Day white SCL 1st seen", "setting": "Rhizoctonia solani [1]; 20 mg/L (Table 9)", "result": 4},
      {"measurement": "No. black SCL on day 10", "setting": "Rhizoctonia solani [1]; 20 mg/L (Table 9)", "result": 2},
      {"measurement": "Day 1 growth in mm", "setting": "Rhizoctonia solani [1]; 40 mg/L (Table 9)", "result": 19, "unit": "mm"},
      {"measurement": "Day growth confluent", "setting": "Rhizoctonia solani [1]; 40 mg/L (Table 9)", "result": 2},
      {"measurement": "No. black SCL on day 10", "setting": "Rhizoctonia solani [1]; 40 mg/L (Table 9)", "result": 0},
      {"measurement": "Day 1 growth in mm", "setting": "Rhizoctonia solani [1]; 80 mg/L (Table 9)", "result": 18, "unit": "mm"},
      {"measurement": "Day growth confluent", "setting": "Rhizoctonia solani [1]; 80 mg/L (Table 9)", "result": 2},
      {"measurement": "No. black SCL on day 10", "setting": "Rhizoctonia solani [1]; 80 mg/L (Table 9)", "result": 0},
      {"measurement": "Day 1 growth in mm", "setting": "Rhizoctonia solani [1]; 160 mg/L (Table 9)", "result": 15, "unit": "mm"},
      {"measurement": "Day growth confluent", "setting": "Rhizoctonia solani [1]; 160 mg/L (Table 9)", "result": 3},
      {"measurement": "No. black SCL on day 10", "setting": "Rhizoctonia solani [1]; 160 mg/L (Table 9)", "result": 0},
      {"measurement": "IC50 values with R. solani (fungal growth)", "setting": "Rhizoctonia solani [2]", "result": "~400", "unit": "µg/mL"}
    ]},
    {"smiles": "O=S(=O)([O-])[O-].[Zn+2]", "note": "[ZnSO4, zinc sulfate]", "values": [
      {"measurement": "IC50 (% of stock solution) on growth of R. solani", "setting": "Rhizoctonia solani [2]", "result": "0.33 % of stock solution"},
      {"measurement": "Fungal growth score, spores of B. cinerea", "setting": "spores of B. cinerea; NaNO2 0 mM", "result": 2},
      {"measurement": "Fungal growth score, spores of B. cinerea", "setting": "spores of B. cinerea; NaNO2 1 mM", "result": 2},
      {"measurement": "Fungal growth score, spores of B. cinerea", "setting": "spores of B. cinerea; NaNO2 3 mM", "result": 2},
      {"measurement": "Fungal growth score, spores of B. cinerea", "setting": "spores of B. cinerea; NaNO2 10 mM", "result": 2},
      {"measurement": "Fungal growth score, spores of B. cinerea", "setting": "spores of B. cinerea; NaNO2 30 mM", "result": 2},
      {"measurement": "Fungal growth score, spores of B. cinerea", "setting": "spores of B. cinerea; NaNO2 100 mM", "result": 1}
    ]}
  ]
}
